# In ChEMBL document CHEMBL1629508, “Synthesis and structure-activity relationships of tyrosine-based inhibitors of autotaxin (ATX)” (Bioorg Med Chem Lett, 2010):
# Target: T1, Autotaxin (Homo sapiens, UniProt Q13822)
# Test: Inhibition of autotoxin assessed as choline production after 60 to 180 mins using lysophosphatidylcholine as a substrate by colorimetric method
row,Structure (SMILES),Ki [µM]
1,CCCCCCCCCCCCCCCC(=O)N[C@@H](Cc1ccc(OCc2cc(C)c(OC)c(C)c2)cc1)[C@H](O)CP(=O)(O)O,5.3
2,CCCCCCCCCCCCCCCC(=O)N[C@@H](Cc1ccc(OCc2ccccc2)cc1)[C@@H](O)CP(=O)(O)O,27
3,CCCCCCCCCCCCCCCC(=O)N[C@@H](Cc1ccc(OCc2cc(OC)ccn2)cc1)[C@@H](O)CP(=O)(O)O,1.5
4,CCCCCCCCCCCCCCCC(=O)N[C@@H](Cc1ccc(OCc2ncc(C)cc2C)cc1)[C@@H](O)CP(=O)(O)O,3.9
5,CCCCCCCCCCCCCCCC(=O)N[C@@H](Cc1ccc(OCc2ncc(C)c(OC(C)C)c2C)cc1)[C@H](O)CP(=O)(O)O,11.1
6,CCCCCCCCCCCCCCCC(=O)N[C@@H](Cc1ccc(OCc2cc(OCC(F)(F)F)ccn2)cc1)[C@@H](O)CP(=O)(O)O,11.6
7,CCCCCCCCCCCCCCCC(=O)N[C@@H](Cc1ccc(OCc2ncc(C)c(OCC)c2C)cc1)[C@H](O)CP(=O)(O)O,6.2
8,CCCCCCCCCCCCCCCC(=O)N[C@@H](Cc1ccc(OCc2cc(C)cc(C)c2)cc1)[C@@H](O)CP(=O)(O)O,88.9
9,CCCCCCCCCCCCCCCC(=O)N[C@@H](Cc1ccc(OCc2cc(OCC(F)(F)F)ccn2)cc1)[C@H](O)CP(=O)(O)O,22.5
10,CCCCCCCCCCCCCCCC(=O)N[C@@H](Cc1ccc(OCc2cc(C)c(OC)c(C)c2)cc1)[C@@H](O)CP(=O)(O)O,1.6
11,CCCCCCCCCCCCCCCC(=O)N[C@@H](Cc1ccc(OCc2ncc(C)c(OC)c2C)cc1)[C@@H](O)CP(=O)(O)O,1
12,CCCCCCCCCCCCCCCC(=O)N[C@@H](Cc1ccc(OCc2ccc(OC)c(C)c2)cc1)[C@H](O)CP(=O)(O)O,26.5
13,CCCCCCCCCCCCCCCC(=O)N[C@@H](Cc1ccc(OCc2cc(C)cc(C)c2)cc1)[C@H](O)CP(=O)(O)O,217
14,CCCCCCCCCCCCCCCC(=O)N[C@@H](Cc1ccc(OCc2ccc(Cl)cc2Cl)cc1)[C@H](O)CP(=O)(O)O,1060
15,CCCCCCCCCCCCCCCC(=O)N[C@@H](Cc1ccc(OCc2ccc(Cl)cc2Cl)cc1)[C@@H](O)CP(=O)(O)O,584
16,CCCCCCCCCCCCCCCC(=O)N[C@@H](Cc1ccc(OCc2ccccn2)cc1)[C@@H](O)CP(=O)(O)O,4.4
17,CCCCCCCCCCCCCCCC(=O)N[C@@H](Cc1ccc(OCc2ncc(C)c(OC(C)C)c2C)cc1)[C@@H](O)CP(=O)(O)O,8.8
18,CCCCCCCCCCCCCCCC(=O)N[C@@H](Cc1ccc(OCc2ccccn2)cc1)[C@H](O)CP(=O)(O)O,11
19,CCCCCCCCCCCCCCCC(=O)N[C@@H](Cc1ccc(OCc2ccccc2)cc1)[C@H](O)CP(=O)(O)O,83
20,CCCCCCCCCCCCCCCC(=O)N[C@@H](Cc1ccc(OCc2ccc(C)cc2C)cc1)[C@H](O)CP(=O)(O)O,4.8
21,CCCCCCCCCCCCCCCC(=O)N[C@@H](Cc1ccc(OCc2ccc(C)cc2C)cc1)[C@@H](O)CP(=O)(O)O,1.8
22,CCCCCCCCCCCCCCCC(=O)N[C@@H](Cc1ccc(OCc2cc(OC)ccn2)cc1)[C@H](O)CP(=O)(O)O,3.5
23,CCCCCCCCCCCCCCCC(=O)N[C@@H](Cc1ccc(OCc2ncc(C)c(OCC)c2C)cc1)[C@@H](O)CP(=O)(O)O,4.7
24,CCCCCCCCCCCCCCCC(=O)N[C@@H](Cc1ccc(OCc2ccc(OC)c(C)c2)cc1)[C@@H](O)CP(=O)(O)O,4.3
25,CCCCCCCCCCCCCCCC(=O)N[C@@H](Cc1ccc(OCc2ncc(C)c(OC)c2C)cc1)[C@H](O)CP(=O)(O)O,3.9
26,CCCCCCCCCCCCCCCC(=O)N[C@@H](Cc1ccc(OCc2ncc(C)cc2C)cc1)[C@H](O)CP(=O)(O)O,399

# Target: T1, Autotaxin
# Test: Inhibition of autotoxin assessed as choline release from LPC using lysophosphatidylcholine as substrate
row,Structure (SMILES),Ki [µM]
1,CCCCCCCCCCCCCCCCCC(=O)OC[C@@H](O)CC(Br)P(=O)(O)O (stereo not given in full),40.1
2,CCCCCCCCCCCCCC(=O)Nc1ccc(CP(=O)(O)O)cc1,0.367
3,O=C1S/C(=C\c2cccc(B(O)O)c2)C(=O)N1Cc1ccc(F)cc1,0.094
4,O=C(O)c1cccc(/C=C2\SC(=O)N(Cc3ccc(F)cc3)C2=O)c1,0.187
